Common to all, as to experiment: DTP human tumour cell line panel, 48 h
The subject of assay [1] is NCI-H23 lung.
The test system of assay [2] is SK-OV-3 ovarian.
The test system of assay [3] is COLO 205 colon.
Assay [4] concerns CAKI-1 renal.
For assay [5], the system named is SNB-75 CNS.
In assay [6] the test system is HS 578T breast.
Assay [7] has as its system UO-31 renal.
The test system of assay [8] is HL-60(TB) leukemia.
In assay [9] the test system is SF-539 CNS.
In assay [10] the test system is HOP-92 NSCLC.

Each structure is given as a SMILES string.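 The compound was tested at five concentrations on cells cultured in 96-well plates, with a 48-hour exposure period. Here, GI50 denotes the concentration required for 50% inhibition of growth. TGI: concentration producing complete growth inhibition.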

Here are results for 10 compounds from PubChem BioAssay (NCI).

`COC(=O)c1n[nH]c(C)c1N=NN(C)CCC#N`: the TGI in assay [1] was 36.5 µM; in assay [2] it was 61.5 µM; in [3] it was 26.9 µM; in [4] it was 33.4 µM; in assay [5], 33 µM; in [6] it was 52 µM. Moreover, the concentration for total growth inhibition (TGI) in assay [7] stood at 13.3 µM; in assay [8] it was 87.6 µM; in assay [9], 30.3 µM; in assay [10], 35 µM.

On to `COc1ccc2c(c1OC)C[C@@H]1c3c(cc4c(c3-2)OCO4)CCN1C`, for which the TGI in assay [1] was greater than 100 µM; in [2], 58.4 µM; in [3], 40.3 µM; in [4], greater than 100 µM; in assay [5] it was 52.5 µM; in [6] it was greater than 100 µM. The TGI in [7] worked out at 45.4 µM; in assay [8] it was 27.2 µM; in assay [9] it was 50 µM; in assay [10] it was 68.1 µM.

On to `CC(=O)Nc1ccc2c(c1)C(c1ccccc1Cl)=Nc1c(n[nH]c1C)N2`, for which the GI50 in assay [1] is 12.4 µM; in assay [2], greater than 25 µM; in [3], 1.53 µM; in assay [4], 2.84 µM; in assay [5], 0.732 µM; in assay [6], 0.928 µM. Moreover, the GI50 was 5.63 µM in assay [7], 14.8 µM in [8], 0.999 µM in assay [9] and 1.41 µM in assay [10]. Moreover, the TGI was greater than 25 µM in assay [1]; greater than 25 µM in assay [2]; greater than 22 µM in [3]; greater than 22.5 µM in [4]; 6.24 µM in [5]; greater than 11.7 µM in assay [6]. Further, the TGI is greater than 22.5 µM in assay [7], greater than 25 µM in [8], 12.5 µM in assay [9] and 16.4 µM in assay [10].

`C/C(=N\NC(=S)N1CCCCC1)c1ccccn1`: the GI50 in assay [1] was less than 0.01 µM; in [2], 0.213 µM; in [3], less than 0.01 µM; in [4] it was 0.103 µM; in assay [5], 1.66 µM; in [6], 0.142 µM. The 50% growth inhibitory concentration (GI50) in assay [7] was less than 0.0123 µM; in assay [8] it was 0.0527 µM; in assay [9], 0.257 µM; in assay [10], 0.0963 µM. For the same compound, the total growth inhibition concentration (TGI) was 9.71 µM in assay [1]; 1.94 µM in [2]; 0.041 µM in assay [3]; 5.22 µM in [4]; 6.8 µM in assay [5]; 2.29 µM in [7]. The total growth inhibition concentration (TGI) was found to be 2.64 µM in assay [8], 6.87 µM in assay [9] and 4.54 µM in [10].

`O=c1[nH]c2ccccc2c2ccccc12`: the GI50 was greater than 100 µM in [1]; 23.6 µM in assay [2]; greater than 100 µM in [3]; greater than 100 µM in assay [4]; greater than 100 µM in assay [5]; greater than 100 µM in assay [6]. In addition, the GI50 in assay [7] was 70.9 µM; in [8] it was greater than 100 µM; in [9] it was greater than 100 µM; in assay [10], 39.8 µM. For the same compound, the TGI in assay [1], in assay [2], in assay [3], in [4], in assay [5] and in [6] was greater than 100 µM in each case. The total growth inhibition concentration (TGI) in assay [7], in assay [8], in assay [9] and in [10] was greater than 100 µM each time.

Turning to `CCOC(=O)C1Cc2c(cc3c4c(cccc24)N(C(C)=O)C3)N(C)C1` (stereo unspecified), the TGI is greater than 100 µM in assay [1]; greater than 100 µM in assay [2]; greater than 100 µM in assay [3]; greater than 100 µM in assay [4]; greater than 100 µM in assay [5]; 9.07 µM in assay [6]. In addition, the TGI was greater than 100 µM in assay [7], greater than 100 µM in assay [8], 10.1 µM in [9] and 99.7 µM in assay [10].

Regarding `O=Nc1ccc(O)c(=O)cc1`, the GI50 in [1] is 3.04 µM; in assay [2] it was 16.2 µM; in [3], 1.08 µM; in assay [4], 0.936 µM; in assay [5] it was 3.77 µM; in assay [6], 5.57 µM. Besides, the GI50 in assay [7] was 1.15 µM; in assay [8] it was 0.547 µM; in assay [9] it was 2.67 µM; in assay [10], 0.998 µM. For the same compound, the concentration for total growth inhibition (TGI) in assay [1] was 12 µM; in assay [2], 37.3 µM; in assay [3], 3.45 µM; in assay [4], 5.8 µM; in [5], 17.2 µM; in [6], greater than 44.4 µM. Besides, the TGI in assay [7] was determined as 2.69 µM; in assay [8], 2.59 µM; in assay [9], 7.48 µM; in [10], 3.39 µM.

In the case of `c1ccc2sc(SCCSc3nc4ccccc4s3)nc2c1`, the concentration for total growth inhibition (TGI) in [1], in [2], in [4], in assay [5], in [6] and in [7] was greater than 100 µM throughout. Further, the TGI in assay [8] and in assay [10] was greater than 100 µM in each case.

Regarding `NNC(=S)N/N=C(\C(=O)Nc1cccc(O)c1)C1C(=O)NC(=S)NC1=O`, the TGI in [2], in [4], in [5], in assay [6], in [7] and in assay [8] was greater than 100 µM throughout. Besides, the total growth inhibition concentration (TGI) in assay [9] and in assay [10] was greater than 100 µM in each case.

Take `Cc1nc([P+](c2ccccc2)(c2ccccc2)c2ccccc2)c(Sc2sc(-c3ccccc3)nc2[P+](c2ccccc2)(c2ccccc2)c2ccccc2)o1`: the GI50 in assay [1] was 1.99 µM; in assay [4] it was 2.69 µM; in [5], 1.11 µM; in assay [6] it was 1.22 µM; in assay [7], 1.81 µM; in [8] it was 1.39 µM. Besides, the GI50 was 2.3 µM in assay [9] and 0.759 µM in assay [10]. Besides, the TGI turned out to be 5.92 µM in [1]; 9.71 µM in assay [4]; 4.31 µM in assay [5]; 5.32 µM in assay [6]; 5.99 µM in assay [7]; 4 µM in [8]. Also, the results for the TGI in assay [9] and in assay [10] were 7.34 µM and 3.73 µM, respectively.
